From patent US20160310454A1, “LIVER X RECEPTOR AGONISTS IN THE TREATMENT OF EMPHYSEMA” (priority 2013, published 2016)
“Also recorded” adds a separate entry of the source.

Columns and labels:
[1] = system: mouse macrophages (bone marrow derived, ABCA1 fl/fl WT) treated with 5% CSE; assay: Mouse macrophages treated with 5% CSE with or without LXR agonist (RT-PCR, Western blot, zymography); type: cell-based
Description: (§1) To prepare cigarette (CSE), the smoke from one cigarette (1.1 mg of nicotine, 15 mg of tar) was passed through 25 mls of phosphate buffered saline (PBS) (Mercer et al., 2004). The pH of the extracted solution was adjusted to 7.4 and then filtered (Mercer et al., 2004). CSE was added to the media at concentrations up to 5% (vol/vol) (Mercer et al., 2004).
In these experiments both mouse peritoneal and mouse bone marrow derived macrophages (BMdM) were utilized. Mouse peritoneal macrophages were isolated from peritoneal cavities of 3% thioglycolate injected mice on the 5th day from injection. To compare expression of genes in vitro and in vivo peritoneal macrophages were isolated from mice exposed to room air and cigarette smoke. For in vitro analysis cells were seeded on culture plates for 24 h and then treated with CSE. For in vivo analysis cells were collected from peritoneal cavity and mRNA was directly isolated. Mouse BMdMs were obtained from the following mice: ABCA1 fl/fl in a C57/BL6 background. Briefly, mice were first sacrificed by CO2 asphyxiation followed by cervical dislocation. After sacrificing the mouse the legs were amputated and the excess muscle tissue was removed so as to completely expose the femur and tibia, which were cleaned carefully. These samples were left in sterile PBS for the duration of the procedure. The cavity bones were then flushed with 10 ml of PBS using 26G needle. The obtained cells were then counted (usually 100-150 million cells per mouse) and centrifuged for 5 min at 2600 rpm. Hematopoietic cells can be separated by plastic adhesion; therefore the cells were incubated in petri dishes containing DMEM culture media and supplemented with 10% FBS and 1% antibiotics). Non-adherent progenitor cells were then collected after 2 hours of incubation in culture media and then seeded at a concentration of 4 million cells/ml in fresh culture media, supplemented with L-cell conditioned media containing macrophage colony stimulating factor (M-CSF) at a concentration of 20%. Approximately after 7-10 days of plating the cells become fully differentiated into macrophages and were ready for subsequent experiments. After treatment the culture supernatants, proteins, and total RNA were collected for analysis. […]
Total RNA was extracted from specimens of lung tissue 0.3 cm^3 in size with the use of the RNeasy kit (Qiagen, Germantown, Md.) (Goldklang et al., 2012). The RNA was then further processed to obtain cDNA, which was used for Real Time (RT) PCR analysis. TaqMan gene expression assays (Applied Biosystems, Carlsbad, Calif.) were performed to assess gene-transcript levels with the use of an ABI Prism 7900HT Sequence Detection System (Applera, Foster City, Calif.) (Goldklang et al., 2012). The following primers were used to check the respective gene expression: ABCA1 (Hs01059118_m1), ABCG1 (Hs00245154_m1), MMP-9 (Mm00442991_m1), IL-1β (Mm00434227_g1), TNF-α (Mm00443260_g1) and GAPDH (4352932E) from TaqMan Gene Expression Assays, Applied Biosystems, CA. β-actin was used as a control since it is a housekeeping gene.
The lungs of mice (-10 mg) were homogenized in 1 ml of Radioimmunoprecipitation assay (RIPA) buffer, and centrifuged at 14,000 g for 10 min. The protein concentration of each sample was measured using a Bradford reagent. The required amount of each sample was then used for western blot analysis, so that the concentration was equal for all samples. Proteins were first separated on the basis of molecular weight via sodium dodecyl sulphate polyacrylamide gel electrophoresis (SDS-PAGE). The same gel was then transferred onto a nitro cellulose membrane with the help of electric current (or electroblotting) that transfers the protein from polyacrylamide gel to the membrane. This membrane was then incubated in the solution containing primary antibodies, specific for the proteins of interest, ABCA1 and ABCG1, followed by the use of a secondary antibody that allowed the detection of protein by chemiluminescent. […]

[2] = system: human peripheral blood monocytes differentiated to macrophages, 5% CSE; assay: Human monocyte-derived macrophages treated with 5% CSE with or without LXR agonist; type: cell-based; settings: LXR agonist 3 μM
Source text: FIG. 21. Downregulation of ABC transporters in Chronic Obstructive Pulmonary Disease (COPD) as potential therapeutic target with LXR agonist. (A.) (Left) mRNA expression analysis of ABCA1 G1 in lungs of patients with moderate (after lung volume reduction) and severe COPD (after lung transplantation) and (Right) mRNA expression analysis of ABCA1/G1 in lungs of patients with moderate and severe COPD (n=7). (B.) mRNA analysis of ABCA1, ABCG1, MMP9, (C.) MMP-2 and 9 activity assayed by gelatin zymography in human peripheral blood monocytes differentiated to macrophages in vitro by 3 days treatment with M-CSF (10Ong/m1). After differentiation process human macrophages were treated with 5% CSE with or without LXR agonist (T0901317-Cayman) treatment in 3 μM concentration. β-Actin was used as a housekeeping gene control for RT-PCR. Values are presented as statistically significant when *p<0.05, **p<0.01, ***p<0.001 when compared to controls and #p<0.05 compared Co LXR treated human macrophages.
as §1

[3] = system: macrophage ABCA1-deficient mice exposed to cigarette smoke for 10 days; assay: Acute 10 day cigarette smoke exposure of macrophage ABCA1-deficient mice with treatment; type: in vivo, mouse; settings: 25 mg/kg IP, 10 days smoke exposure
Description: In order to determine if the mechanism identified in vitro contributed to changes in smoke induced lung inflammation in vivo, smoke studies were performed in vivo. […] Through investigation of the smoke-induced regulation of ABCA1, the present disclosure identifies unique pathways that can be targeted to prevent smoking-related emphysema and the progression of lung destruction.

O=S(=O)(c1ccccc1)N(CC(F)(F)F)c1ccc(C(O)(C(F)(F)F)C(F)(F)F)cc1 [T0901317, N-(2,2,2-trifluoroethyl)-N-[4-[2,2,2-trifluoro-1-hydroxy-1-(trifluoromethyl)ethyl]phenyl]-benzenesulfonamide]
Expression of ABCA1 and ABCG1 (mRNA and protein) ([1]; 5% CSE, LXR agonist 3 μM): maintained at baseline levels
cigarette smoke induced mRNA expression of TLR4/Myd88 ([1]; 5% CSE, LXR agonist 3 μM): inhibited
cigarette smoke induced phosphorylation of JNK and ERK ([1]; 5% CSE, LXR agonist 3 μM, Western blot): inhibited
Expression of ABCA1 and ABCG1 (mRNA and protein) ([1]; 5% CSE, LXR agonist 3 μM, listed as LXR agonist): re-established
CSE induced upregulation of IL-1β and TNFα and downregulation of IL-10 (mRNA) ([1]; ABCA1 WT macrophages, 5% CSE, LXR agonist 3 μM): reversed back to baseline
mRNA and activity of MMP-9 ([1]; ABCA1 WT macrophages, 5% CSE, LXR agonist 3 μM, gelatin zymography): blocked; also recorded: reduced
cigarette smoke-induced pro-inflammatory cytokines and MMP expression and activity ([1]; mouse macrophages treated with CSE): blocked
MMP-9 activity (zymography) and expression, MMP-13 expression and TNFα expression ([1]; smoke-induced, macrophages): decrease
ABC transporter levels (ABCA1, ABCG1 mRNA) [2]: restored
CSE increased MMP-9 expression and activity [2]: inhibited
pulmonary inflammation (total cell counts in BAL) [3]: did not resolve
